# From US9999619B2, “Piperidin-4-yl azetidine derivatives as JAK1 inhibitors” (Incyte Corporation, priority 2010, dated 2018)
# Legend:
# Type in all cases: biochemical
# [1] = target: human JAK1 (a.a. 837-1142) (Homo sapiens, UniProt P23458); assay: In vitro JAK kinase assay (HTRF, phosphorylation of a biotinylated peptide), JAK1; conditions: measured at 1 mM ATP
# Experimental: (§1) Compounds herein were tested for inhibitory activity of JAK targets according to the following in vitro assay described in Park et al., Analytical Biochemistry 1999, 269, 94-104. The catalytic domains of human JAK1 (a.a. 837-1142), Jak2 (a.a. 828-1132) and Jak3 (a.a. 781-1124) with an N-terminal His tag were expressed using baculovirus in insect cells and purified. The catalytic activity of JAK1, JAK2 or JAK3 was assayed by measuring the phosphorylation of a biotinylated peptide. The phosphorylated peptide was detected by homogenous time resolved fluorescence (HTRF). […] Reactions were carried out at room temperature for 1 hr and then stopped with 20 μL 45 mM EDTA, 300 nM SA-APC, 6 nM Eu-Py20 in assay buffer (Perkin Elmer, Boston, Mass.). Binding to the Europium labeled antibody took place for 40 minutes and HTRF signal was measured on a Fusion plate reader (Perkin Elmer, Boston, Mass.).
# [2] = target: human JAK1 (a.a. 837-1142); assay: as above; conditions: ratio of JAK2 IC50 to JAK1 IC50, measured at 1 mM ATP
# Experimental: as §1
# Jak2 (a.a. 828-1132) = Jak2 (a.a. 828-1132) (Homo sapiens (Human), UniProt O60674); assay: In vitro JAK kinase assay (HTRF, phosphorylation of a biotinylated peptide), JAK2; conditions: measured at 1 mM ATP
# Experimental: as §1
# Jak2 (a.a. 828-1132), sequence (O60674 828-1132): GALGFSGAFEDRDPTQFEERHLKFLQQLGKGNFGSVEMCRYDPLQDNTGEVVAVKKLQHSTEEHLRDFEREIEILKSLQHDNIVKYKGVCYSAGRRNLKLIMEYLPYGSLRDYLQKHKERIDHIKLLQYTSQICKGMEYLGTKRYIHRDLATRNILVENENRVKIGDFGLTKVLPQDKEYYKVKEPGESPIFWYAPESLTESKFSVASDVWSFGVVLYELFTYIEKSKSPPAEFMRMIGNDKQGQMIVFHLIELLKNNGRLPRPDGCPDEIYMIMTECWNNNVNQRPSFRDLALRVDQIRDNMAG
IC50 [1] [nM],IC50 Ratio JAK2/JAK1 [2],IC50 (Jak2 (a.a. 828-1132)) [nM],SMILES
5 to 20,3.1,10 to 50,"N#CCC1(n2ccc(-c3ncnc4[nH]ccc34)c2)CN(C2CCN(C(=O)c3ccc(F)c(C(F)(F)F)c3)CC2)C1 [Example 275, {1-{1-[4-fluoro-3-(trifluoromethyl)benzoyl]piperidin-4-yl}-3-[3-(7H-pyrrolo[2,3-d]pyrimidin-4-yl)-1H-pyrrol-1-yl]azetidin-3-yl}acetonitrile]"
≤ 5,2.1,≤ 10,"COc1cc(C(=O)N2CCC(N3CC(CC#N)(n4cc(-c5ncnc6[nH]ccc56)cn4)C3)CC2)cc(Cl)n1 [Example 37, {1-[1-(2-chloro-6-methoxyisonicotinoyl)piperidin-4-yl]-3-[4-(7H-pyrrolo[2,3-d]pyrimidin-4-yl)-1H-pyrazol-1-yl]azetidin-3-yl}acetonitrile]"
≤ 5,7.8,10 to 50,"N#CCC1(n2ccc(-c3ncnc4[nH]ccc34)c2)CN(C2CCN(C(=O)c3cccs3)CC2)C1 [Example 271, {3-[3-(7H-pyrrolo[2,3-d]pyrimidin-4-yl)-1H-pyrrol-1-yl]-1-[1-(2-thienylcarbonyl)piperidin-4-yl]azetidin-3-yl}acetonitrile]"
≤ 5,20.9,50 to 100,"N#CCC1(n2cc(-c3ncnc4[nH]ccc34)cn2)CN([C@@H]2CCN(C(=O)c3ccnc(C(F)(F)F)c3F)C[C@@H]2F)C1 (relative stereo) [Example 361, {1-{cis-3-Fluoro-1-[3-fluoro-2-(trifluoromethyl)isonicotinoyl]piperidin-4-yl}-3-[4-(7H-pyrrolo[2,3-d]pyrimidin-4-yl)-1H-pyrazol-1-yl]azetidin-3-yl}acetonitrile]"
5 to 20,6.6,50 to 100,"N#CCC1(n2ccc(-c3ncnc4[nH]ccc34)c2)CN(C2CCN(C(=O)c3c(F)cc(C#N)cc3F)CC2)C1 [Example 265, 4-[(4-{3-(cyanomethyl)-3-[3-(7H-pyrrolo[2,3-d]pyrimidin-4-yl)-1H-pyrrol-1-yl]azetidin-1-yl}piperidin-1-yl)carbonyl]-3,5-difluorobenzonitrile]"
5 to 20,6.6,50 to 100,"N#CCC1(n2ccc(-c3ncnc4[nH]ccc34)c2)CN(C2CCN(C(=O)c3cc(F)ccc3C(F)(F)F)CC2)C1 [Example 266, {1-{1-[5-fluoro-2-(trifluoromethyl)benzoyl]piperidin-4-yl}-3-[3-(7H-pyrrolo[2,3-d]pyrimidin-4-yl)-1H-pyrrol-1-yl]azetidin-3-yl}acetonitrile]"
≤ 5,4.1,≤ 10,"N#CCC1(n2ccc(-c3ncnc4[nH]ccc34)c2)CN(C2CCN(C(=O)c3c(F)cccc3F)CC2)C1 [Example 279, {1-[1-(2,6-difluorobenzoyl)piperidin-4-yl]-3-[3-(7H-pyrrolo[2,3-d]pyrimidin-4-yl)-1H-pyrrol-1-yl]azetidin-3-yl}acetonitrile]"
≤ 5,4.1,≤ 10,"Cc1ccc(C(=O)N2CCC(N3CC(CC#N)(n4cc(-c5ncnc6[nH]ccc56)cn4)C3)CC2)s1 [Example 80, {1-{1-[(5-methyl-2-thienyl)carbonyl]piperidin-4-yl}-3-[4-(7H-pyrrolo[2,3-d]pyrimidin-4-yl)-1H-pyrazol-1-yl]azetidin-3-yl}acetonitrile]"
≤ 5,7.1,10 to 50,"N#CCC1(n2cc(-c3ncnc4[nH]ccc34)cn2)CN(C2CCN(C(=O)OCc3ccc(F)cc3F)CC2)C1 [Example 393, 2,4-difluorobenzyl 4-{3-(cyanomethyl)-3-[4-(7H-pyrrolo[2,3-d]pyrimidin-4-yl)-1H-pyrazol-1-yl]azetidin-1-yl}piperidine-1-carboxylate]"
≤ 5,29.6,50 to 100,"COCCN(C)Cc1cc(C(=O)N2CCC(N3CC(CC#N)(n4cc(-c5ncnc6[nH]ccc56)cn4)C3)CC2)nc(C(F)(F)F)n1 [Example 384, {1-(1-{[6-{[(2-methoxyethyl)(methyl)amino]methyl}-2-(trifluoromethyl)pyrimidin-4-yl]carbonyl}piperidin-4-yl)-3-[4-(7H-pyrrolo[2,3-d]pyrimidin-4-yl)-1H-pyrazol-1-yl]azetidin-3-yl}acetonitrile]"
5 to 20,5.9,10 to 50,"N#CCC1(n2cc(-c3ncnc4[nH]ccc34)cn2)CN(C2CCN(Cc3cccc(C#N)c3)CC2)C1 [Example 223, 3-[(4-{3-(cyanomethyl)-3-[4-(7H-pyrrolo[2,3-d]pyrimidin-4-yl)-1H-pyrazol-1-yl]azetidin-1-yl}piperidin-1-yl)methyl]benzonitrile]"
5 to 20,5.3,50 to 100,"N#CCC1(n2cc(-c3ccnc4[nH]ccc34)cn2)CN(C2CCN(C(=O)Nc3ccc(C#N)cc3F)CC2)C1 [Example 312, N-(4-cyano-2-fluorophenyl)-4-{3-(cyanomethyl)-3-[4-(1H-pyrrolo[2,3-b]pyridin-4-yl)-1H-pyrazol-1-yl]azetidin-1-yl}piperidine-1-carboxamide]"
5 to 20,3.0,10 to 50,"Cc1nc(NC(=O)N2CCC(N3CC(CC#N)(n4cc(-c5ncnc6[nH]ccc56)cn4)C3)CC2)sc1C [Example 192, 4-{3-(cyanomethyl)-3-[4-(7H-pyrrolo[2,3-d]pyrimidin-4-yl)-1H-pyrazol-1-yl]azetidin-1-yl}-N-(4,5-dimethyl-1,3-thiazol-2-yl)piperidine-1-carboxamide]"
≤ 5,4.8,10 to 50,"COC(=O)c1ccc(NC(=O)N2CCC(N3CC(CC#N)(n4cc(-c5ncnc6[nH]ccc56)cn4)C3)CC2)c(F)c1 [Example 208, methyl 4-{[(4-{3-(cyanomethyl)-3-[4-(7H-pyrrolo[2,3-d]pyrimidin-4-yl)-1H-pyrazol-1-yl]azetidin-1-yl}piperidin-1-yl)carbonyl]amino}-3-fluorobenzoate]"
≤ 5,5.3,≤ 10,"N#CCC1(n2cc(-c3ncnc4[nH]ccc34)cn2)CN(C2CCN(C(=O)c3ccc(C(F)(F)F)cc3F)CC2)C1 [Example 82, {1-{1-[2-fluoro-4-(trifluoromethyl)benzoyl]piperidin-4-yl}-3-[4-(7H-pyrrolo[2,3-d]pyrimidin-4-yl)-1H-pyrazol-1-yl]azetidin-3-yl}acetonitrile]"
20 to 30,2.1,50 to 100,"N#CCC1(n2cc(-c3ncnc4[nH]ccc34)cn2)CN(C2CCN(C(=O)Nc3nccs3)CC2)C1 [Example 190, 4-{3-(cyanomethyl)-3-[4-(7H-pyrrolo[2,3-d]pyrimidin-4-yl)-1H-pyrazol-1-yl]azetidin-1-yl}-N-1,3-thiazol-2-ylpiperidine-1-carboxamide]"
≤ 5,3.3,≤ 10,"COc1cc(C(=O)N2CCC(N3CC(CC#N)(n4cc(-c5ncnc6[nH]ccc56)cn4)C3)CC2)ccc1F [Example 26, {1-[1-(4-fluoro-3-methoxybenzoyl)piperidin-4-yl]-3-[4-(7H-pyrrolo[2,3-d]pyrimidin-4-yl)-1H-pyrazol-1-yl]azetidin-3-yl}acetonitrile]"
5 to 20,6.5,10 to 50,"N#CCC1(n2ccc(-c3ncnc4[nH]ccc34)c2)CN(C2CCN(C(=O)c3ccc(C(F)(F)F)cc3F)CC2)C1 [Example 272, {1-{1-[2-fluoro-4-(trifluoromethyl)benzoyl]piperidin-4-yl}-3-[3-(7H-pyrrolo[2,3-d]pyrimidin-4-yl)-1H-pyrrol-1-yl]azetidin-3-yl}acetonitrile]"
≤ 5,6.5,≤ 10,"N#CCC1(n2cc(-c3ncnc4[nH]ccc34)cn2)CN(C2CCN(C(=O)Nc3ccc(Cl)cc3F)CC2)C1 [Example 178, N-(4-chloro-2-fluorophenyl)-4-{3-(cyanomethyl)-3-[4-(7H-pyrrolo[2,3-d]pyrimidin-4-yl)-1H-pyrazol-1-yl]azetidin-1-yl}piperidine-1-carboxamide]"

SMILES,IC50 [1] [nM],IC50 Ratio JAK2/JAK1 [2],IC50 (Jak2 (a.a. 828-1132)) [nM]
"N#CCC1(n2cc(-c3ncnc4[nH]ccc34)cn2)CN(C2CC3CCC(C2)N3C(=O)c2cc(F)cc(C#N)c2)C1 (stereo not drawn) [Example 138, 3-[(3-{3-(Cyanomethyl)-3-[4-(7H-pyrrolo[2,3-d]pyrimidin-4-yl)-1H-pyrazol-1-yl]azetidin-1-yl}-8-azabicyclo[3.2.1]oct-8-yl)carbonyl]-5-fluorobenzonitrile]",≤ 5,13.9,≤ 10
"N#CCC1(n2cc(-c3ncnc4[nH]ccc34)cn2)CN(C2CC3CCC(C2)N3C(=O)c2ccc(Cl)c(F)c2)C1 (stereo not drawn) [Example 141, {1-[8-(4-chloro-3-fluorobenzoyl)-8-azabicyclo[3.2.1]oct-3-yl]-3-[4-(7H-pyrrolo[2,3-d]pyrimidin-4-yl)-1H-pyrazol-1-yl]azetidin-3-yl}acetonitrile]",≤ 5,6.2,≤ 10
"N#CCC1(n2cc(-c3ccnc4[nH]ccc34)cn2)CN(C2CCN(C(=O)Nc3ccc(F)cc3F)CC2)C1 [Example 304, 4-{3-(cyanomethyl)-3-{4-(1H-pyrrolo[2,3-b]pyridin-4-yl)-1H-pyrazol-1-yl]azetidin-1-yl}-N-(2,4-difluorophenyl)piperidine-1-carboxamide]",≤ 5,10.3,10 to 50
